Several values for one entry are separate records, joined by “and”; a condition that tells them apart may be missing. Equal entries are not always repeated. Toxic doses and inconclusive results are not listed. Rule for the calls: active = survival T/C of 150% or more; inactive = T/C below 125% in these data.
Test system: BDF1 mice, B16 melanoma ip, median survival T/C
Assay: NCI In Vivo Anticancer Drug Screen. Data for tumor model B16 Melanoma (intraperitoneal) in B6D2F1 (BDF1) mice
Conditions: endpoint: median survival time, higher = longer survival
Summary of the method: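 In this screen, activity was judged from survival or tumor size in treated versus vehicle-treated tumor-bearing mice, reported as T/C.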

[1] = dose: 5.0 mg/kg/injection, schedule: Q01DX009 (ip), vehicle: Klucel (hydroxypropylcellulose) (HPC)
[2] = dose: 10.0 mg/kg/injection, schedule: Q01DX009 (ip), vehicle: Klucel (hydroxypropylcellulose) (HPC)

Measured: T/C

CC12CCC(O)CC1CCC1C2CCC2(C)C(C3=CC(=O)OC3)CCC12O (configuration not stated)
inactive: dose: 2.0 mg/kg/injection, schedule: Q01DX009 (ip), vehicle: Klucel (hydroxypropylcellulose) (HPC) 105 % of control | dose: 4.0 mg/kg/injection, schedule: Q01DX009 (ip), vehicle: Klucel (hydroxypropylcellulose) (HPC) 96 % of control | dose: 8.0 mg/kg/injection, schedule: Q01DX009 (ip), vehicle: Klucel (hydroxypropylcellulose) (HPC) 98 % of control

COC1CCCCC1I (configuration not stated)
inactive: dose: 50.0 mg/kg/injection, schedule: Q01DX009 (ip), vehicle: alcohol 100 % of control | dose: 75.0 mg/kg/injection, schedule: Q04DX003 (ip), vehicle: alcohol 95 % of control | dose: 100.0 mg/kg/injection, schedule: Q01DX009 (ip), vehicle: alcohol 92 % of control | dose: 150.0 mg/kg/injection, schedule: Q04DX003 (ip), vehicle: alcohol 92 % of control

CC1(C)OCC(C2CCC3(C)C4=CCC5C(C)(C)C(O)CCC5(C)C4CCC23C)CC(O)C1O (configuration not stated)
inactive: [1] 118 % of control | [2] 102 % of control

Nc1ccnc(=O)[nH]1
inactive: dose: 32.0 mg/kg/injection, schedule: Q01DX009 (ip), vehicle: Klucel (hydroxypropylcellulose) (HPC) 98 % of control and 102 % of control | dose: 32.0 mg/kg/injection, schedule: Q01DX009 (ip), vehicle: saline with Tween-80 113 % of control | dose: 32.0 mg/kg/injection, schedule: Q01DX009 (ip), vehicle: saline 104 % of control | dose: 64.0 mg/kg/injection, schedule: Q01DX009 (ip), vehicle: Klucel (hydroxypropylcellulose) (HPC) 101 % of control and 106 % of control | dose: 64.0 mg/kg/injection, schedule: Q01DX009 (ip), vehicle: saline with Tween-80 97 % of control | dose: 64.0 mg/kg/injection, schedule: Q01DX009 (ip), vehicle: saline 110 % of control | dose: 128.0 mg/kg/injection, schedule: Q01DX009 (ip), vehicle: Klucel (hydroxypropylcellulose) (HPC) 103 % of control and 113 % of control | dose: 128.0 mg/kg/injection, schedule: Q01DX009 (ip), vehicle: saline with Tween-80 103 % of control | dose: 128.0 mg/kg/injection, schedule: Q01DX009 (ip), vehicle: saline 119 % of control | dose: 256.0 mg/kg/injection, schedule: Q01DX009 (ip), vehicle: Klucel (hydroxypropylcellulose) (HPC) 94 % of control and 103 % of control | dose: 256.0 mg/kg/injection, schedule: Q01DX009 (ip), vehicle: saline 105 % of control | dose: 512.0 mg/kg/injection, schedule: Q01DX009 (ip), vehicle: Klucel (hydroxypropylcellulose) (HPC) 100 % of control and 102 % of control | dose: 512.0 mg/kg/injection, schedule: Q01DX009 (ip), vehicle: saline with Tween-80 111 % of control | dose: 512.0 mg/kg/injection, schedule: Q01DX009 (ip), vehicle: saline 110 % of control

Cc1ccc(NS(=O)(=O)c2ccc(F)cc2)cc1C
inactive: dose: 100.0 mg/kg/injection, schedule: Q01DX009 (ip), vehicle: Klucel (hydroxypropylcellulose) (HPC) 96 % of control | dose: 200.0 mg/kg/injection, schedule: Q01DX009 (ip), vehicle: Klucel (hydroxypropylcellulose) (HPC) 100 % of control | dose: 400.0 mg/kg/injection, schedule: Q01DX009 (ip), vehicle: Klucel (hydroxypropylcellulose) (HPC) 93 % of control

C=C1CCC2(C)C(O)CC3(C)C(CCC4C5(C)CCC(OC(C)=O)C(C)(C)C5CCC43C)C2C1C (configuration not stated)
inactive: dose: 1.0 mg/kg/injection, schedule: Q01DX009 (ip), vehicle: other 107 % of control | dose: 2.0 mg/kg/injection, schedule: Q01DX009 (ip), vehicle: other 101 % of control | dose: 4.0 mg/kg/injection, schedule: Q01DX009 (ip), vehicle: other 102 % of control

N#CO
inactive: dose: 18.7 mg/kg/injection, schedule: Q01DX009 (ip), vehicle: saline 100 % of control | dose: 37.5 mg/kg/injection, schedule: Q01DX009 (ip), vehicle: saline 105 % of control | dose: 75.0 mg/kg/injection, schedule: Q01DX009 (ip), vehicle: saline 105 % of control

NC(Cn1ccc(=O)c(O)c1)C(=O)O (configuration not stated)
inactive: dose: 50.0 mg/kg/injection, schedule: Q01DX009 (ip), vehicle: saline 109 % of control | dose: 100.0 mg/kg/injection, schedule: Q01DX007 (ip), vehicle: saline with Tween-80 98 % of control | dose: 100.0 mg/kg/injection, schedule: Q01DX009 (ip), vehicle: saline 107 % of control | dose: 200.0 mg/kg/injection, schedule: Q01DX007 (ip), vehicle: saline with Tween-80 88 % of control | dose: 200.0 mg/kg/injection, schedule: Q01DX009 (ip), vehicle: saline 109 % of control | dose: 294.0 mg/kg/injection, schedule: Q01DX007 (ip), vehicle: saline with Tween-80 117 % of control | dose: 300.0 mg/kg/injection, schedule: Q01DX007 (ip), vehicle: saline with Tween-80 86 % of control | dose: 367.5 mg/kg/injection, schedule: Q01DX007 (oral), vehicle: saline with Tween-80 103 % of control | dose: 420.0 mg/kg/injection, schedule: Q01DX007 (ip), vehicle: saline with Tween-80 96 % of control | dose: 525.0 mg/kg/injection, schedule: Q01DX007 (oral), vehicle: saline with Tween-80 96 % of control | dose: 750.0 mg/kg/injection, schedule: Q01DX007 (oral), vehicle: saline with Tween-80 98 % of control

Cc1c(Cl)cccc1NC(=O)c1ccc(Cl)cc1
inactive: dose: 75.0 mg/kg/injection, schedule: Q01DX009 (ip), vehicle: Klucel (hydroxypropylcellulose) (HPC) 94 % of control | dose: 150.0 mg/kg/injection, schedule: Q01DX009 (ip), vehicle: Klucel (hydroxypropylcellulose) (HPC) 90 % of control

ClC1CCC[N-]C1.ClC1CCC[N-]C1.[Cl][Pt+2][Cl] (configuration not stated)
inactive: dose: 0.78 mg/kg/injection, schedule: Q01DX009 (ip), vehicle: saline 100 % of control | dose: 1.56 mg/kg/injection, schedule: Q01DX009 (ip), vehicle: saline 95 % of control | dose: 3.13 mg/kg/injection, schedule: Q01DX009 (ip), vehicle: saline 96 % of control | dose: 6.25 mg/kg/injection, schedule: Q01DX009 (ip), vehicle: saline 100 % of control | dose: 12.5 mg/kg/injection, schedule: Q01DX009 (ip), vehicle: saline 95 % of control

CCCCCCCCCCCCCC[N+](C)(C)CCCCCCCCCCCCCC
inactive: dose: 6.0 mg/kg/injection, schedule: Q01DX009 (ip), vehicle: saline 88 % of control

CC(C)(O)C1OCC(C2CCC3(C)C4=CCC5C(C)(C)C(O)CCC5(C)C4CCC23C)CC1O (configuration not stated)
inactive: dose: 2.5 mg/kg/injection, schedule: Q01DX009 (ip), vehicle: Klucel (hydroxypropylcellulose) (HPC) 102 % of control | [1] 98 % of control | [2] 89 % of control

Nc1ccc(S(=O)(=O)CCCl)cc1
inactive: dose: 12.5 mg/kg/injection, schedule: Q04DX003 (ip), vehicle: Klucel (hydroxypropylcellulose) (HPC) 100 % of control | dose: 25.0 mg/kg/injection, schedule: Q04DX003 (ip), vehicle: Klucel (hydroxypropylcellulose) (HPC) 105 % of control | dose: 200.0 mg/kg/injection, schedule: Q04DX003 (ip), vehicle: Klucel (hydroxypropylcellulose) (HPC) 99 % of control

Reference: PubChem BioAssay AID192 (DTP/NCI, 2004)
